Assay results taken from patent publication US20140336073A1, “METHOD OF DETERMINATION OF CANCER CELL DRUG SENSITIVITY TOWARDS AURORA KINASE INHIBITORS” (PALACKY UNIVERSITY, OLOMOUC, priority 2011, published 2014).
Like-named read-outs stand apart in the source and are kept apart here.

Legend:
[1] = test system: HCT116 p53−/−: CYC116 resistant clones; test: MTT based cell proliferation assay of ABT-263; details: polyploid clones, 96 hrs MTT
Method: (§1) The MTT assay was performed in three independent replicates (n=3).
(§2) This method is performed based on the principle that viable cells can reduce yellow colored MTT (3-(4,5-dimethylthiazol-2-yl)-2,5-diphenyltetrazolium bromide) salt to purple colored formazan. The intensity of the purple colored produced is directly proportional to number of viable cells, which can be measured […]. To determine the half inhibitory concentration (IC50) of any medicinal agent MTT assay is very reliable and well accepted. […] The assay was carried out in 2 technical replicates for each concentration and in 3 biological replicates. Alongside blank and controls were included and incubated for 96 hrs. At the end of the assay time point 10 μl of MTT/well (Sigma) (10 mg/ml) was added and incubated until the appearance of violet formazan crystals. The formazan was dissolved with 100 μl/well 10% aqueous SDS (pH: 5.5) by incubating the plates at 37° C. overnight. The optical density was measured at 540 nm using the Labsystem IMS reader and the […] values were determined using Chemorezist software.

[2] = test system: p53+/+ ZM447439 resistant clones; test: MTT based cell proliferation assay of ABT-263; details: diploid p53+/+ ZM447439 resistant clones, 96 hrs MTT
Method: as §1, §2

[3] = test system: p53−/− ZM447439 resistant clones; test: MTT based cell proliferation assay of ABT-263; details: diploid p53−/− ZM447439 resistant clones, 96 hrs MTT
Method: as §1, §2

Bcl-w = Bcl-w (Homo sapiens, UniProt Q92843); details: cited from earlier work
Chain of Bcl-w (Q92843 whole entry): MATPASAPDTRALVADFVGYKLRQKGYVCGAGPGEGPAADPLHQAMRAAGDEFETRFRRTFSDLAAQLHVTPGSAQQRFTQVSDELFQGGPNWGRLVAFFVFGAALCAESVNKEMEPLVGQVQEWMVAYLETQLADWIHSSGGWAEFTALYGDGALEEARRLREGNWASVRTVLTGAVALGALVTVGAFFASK

HCT116 p53+/+ parent = test: cells; details: for IC50: Homo sapiens
Method: as §2

[4] = test system: one HCT116 p53+/+: CYC116 resistant clone; test: MTT assay of CYC116 with or without Bcl-xL siRNA knockdown; assay type: cell-based; details: Homo sapiens, HCT-116
Method: as §2

primary tumor samples = test: 96-h MTT cell proliferation assay on primary tumor biopsies; assay type: cell-based; details: Homo sapiens
CYP1A1 = CYP1A1 expression after CYC116 treatment for 48 h; assay type: cell-based; details: HCT116 and HCT116 p53−/− treated with CYC116 for 48 h
From the text: CYP1A1 is involved in the metabolism of polycyclic aromatic hydrocarbons (PAH). In tobacco smokers CYP1A1 transforms PAH into procarcinogens. CYP1A1 expression was reported in pulmonary cancers and also altered expression in many lung tumors (McLemore T. L. et al., Journal of the National Cancer Institute 1990; 82, 1333-39).

VEGFR2 = VEGFR2 (Homo sapiens, UniProt P35968); details: cited from earlier work
Chain of VEGFR2 (P35968 20-1356): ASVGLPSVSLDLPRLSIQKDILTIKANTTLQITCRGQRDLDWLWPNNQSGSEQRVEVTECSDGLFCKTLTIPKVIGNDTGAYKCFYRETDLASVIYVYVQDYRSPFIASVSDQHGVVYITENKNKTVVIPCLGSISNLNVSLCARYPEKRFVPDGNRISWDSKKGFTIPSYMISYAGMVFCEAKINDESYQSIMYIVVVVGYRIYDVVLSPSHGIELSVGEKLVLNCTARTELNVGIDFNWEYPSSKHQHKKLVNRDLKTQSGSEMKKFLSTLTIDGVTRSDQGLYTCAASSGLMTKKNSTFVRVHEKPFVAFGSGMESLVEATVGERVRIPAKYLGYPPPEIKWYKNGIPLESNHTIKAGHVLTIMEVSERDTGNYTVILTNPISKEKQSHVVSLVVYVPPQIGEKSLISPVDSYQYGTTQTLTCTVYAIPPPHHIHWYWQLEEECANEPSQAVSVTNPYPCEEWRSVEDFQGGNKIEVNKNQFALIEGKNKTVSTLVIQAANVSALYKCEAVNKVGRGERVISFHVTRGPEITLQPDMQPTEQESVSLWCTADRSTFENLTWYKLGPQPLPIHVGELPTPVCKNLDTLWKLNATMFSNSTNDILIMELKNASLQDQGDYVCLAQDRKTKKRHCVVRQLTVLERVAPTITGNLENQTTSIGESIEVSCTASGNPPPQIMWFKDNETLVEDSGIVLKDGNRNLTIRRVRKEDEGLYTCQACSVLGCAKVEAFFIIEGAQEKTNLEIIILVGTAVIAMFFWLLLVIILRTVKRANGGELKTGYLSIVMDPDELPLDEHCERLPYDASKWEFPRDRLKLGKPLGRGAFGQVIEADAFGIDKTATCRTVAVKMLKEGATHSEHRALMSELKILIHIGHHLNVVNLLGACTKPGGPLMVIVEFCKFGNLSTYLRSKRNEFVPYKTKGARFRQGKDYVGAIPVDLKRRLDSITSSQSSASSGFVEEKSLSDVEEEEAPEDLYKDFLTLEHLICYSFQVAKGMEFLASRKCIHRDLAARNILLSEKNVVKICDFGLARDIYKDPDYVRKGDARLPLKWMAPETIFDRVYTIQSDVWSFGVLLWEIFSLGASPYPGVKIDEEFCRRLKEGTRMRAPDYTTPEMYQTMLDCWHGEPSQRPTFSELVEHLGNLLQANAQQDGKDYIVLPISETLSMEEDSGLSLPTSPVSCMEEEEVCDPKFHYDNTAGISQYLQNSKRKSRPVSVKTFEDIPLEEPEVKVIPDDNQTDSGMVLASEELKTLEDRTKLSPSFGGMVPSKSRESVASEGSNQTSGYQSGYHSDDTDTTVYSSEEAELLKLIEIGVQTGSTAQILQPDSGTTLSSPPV

Flt-3 = Flt-3 (Homo sapiens, UniProt P36888); details: cited from earlier work
Chain of Flt-3 (P36888 27-993): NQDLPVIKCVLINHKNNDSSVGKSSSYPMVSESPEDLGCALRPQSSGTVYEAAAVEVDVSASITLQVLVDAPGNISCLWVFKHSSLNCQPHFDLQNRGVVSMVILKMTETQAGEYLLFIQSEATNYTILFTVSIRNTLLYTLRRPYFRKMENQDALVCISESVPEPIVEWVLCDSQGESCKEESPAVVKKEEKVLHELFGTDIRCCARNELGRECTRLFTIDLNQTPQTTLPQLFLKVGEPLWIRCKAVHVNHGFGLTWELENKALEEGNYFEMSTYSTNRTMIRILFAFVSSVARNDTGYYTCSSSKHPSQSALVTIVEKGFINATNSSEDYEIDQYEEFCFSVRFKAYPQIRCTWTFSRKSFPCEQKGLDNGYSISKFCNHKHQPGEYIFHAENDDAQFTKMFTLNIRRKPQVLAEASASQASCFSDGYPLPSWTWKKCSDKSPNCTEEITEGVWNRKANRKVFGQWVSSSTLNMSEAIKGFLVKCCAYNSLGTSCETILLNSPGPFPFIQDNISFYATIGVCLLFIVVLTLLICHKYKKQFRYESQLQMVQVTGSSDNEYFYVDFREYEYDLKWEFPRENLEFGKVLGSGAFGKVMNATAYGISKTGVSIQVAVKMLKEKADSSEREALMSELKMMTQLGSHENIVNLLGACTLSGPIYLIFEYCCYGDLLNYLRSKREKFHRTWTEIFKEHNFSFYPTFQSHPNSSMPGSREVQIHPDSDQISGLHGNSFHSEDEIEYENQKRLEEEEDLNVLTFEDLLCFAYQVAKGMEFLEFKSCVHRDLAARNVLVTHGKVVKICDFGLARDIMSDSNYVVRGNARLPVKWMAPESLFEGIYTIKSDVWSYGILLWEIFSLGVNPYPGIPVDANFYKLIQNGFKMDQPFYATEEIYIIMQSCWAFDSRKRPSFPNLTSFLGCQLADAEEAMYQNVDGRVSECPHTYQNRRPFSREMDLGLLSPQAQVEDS

HCT116 p53−/− parent = test: Cell proliferation (MTT) IC50, cross-resistance profile; assay type: cell-based; details: Homo sapiens, HCT-116
[5] = test system: R1.1 (HCT116 p53+/+ CYC116 resistant clone); test: as above; assay type: cell-based; details: for IC50: Homo sapiens, HCT-116, clone R1.1; for fold increase of IC50 vs parent: clone R1.1 vs HCT116 p53+/+ parent
Method: (§3) Colonies were isolated and bulked up for further studies. […] [1]
as §2

[6] = test system: R1.2 (HCT116 p53+/+ CYC116 resistant clone); test: as above; assay type: cell-based; details: for IC50: Homo sapiens, HCT-116, clone R1.2; for fold increase of IC50 vs parent: clone R1.2 vs HCT116 p53+/+ parent
Method: as §3, §2

[7] = test system: R1.3 (HCT116 p53+/+ CYC116 resistant clone); test: as above; assay type: cell-based; details: for IC50: Homo sapiens, HCT-116, clone R1.3; for fold increase of IC50 vs parent: clone R1.3 vs HCT116 p53+/+ parent
Method: as §3, §2

[8] = test system: R2.1 (HCT116 p53−/− CYC116 resistant clone); test: as above; assay type: cell-based; details: for IC50: Homo sapiens, HCT-116, clone R2.1; for fold increase of IC50 vs parent: clone R2.1 vs HCT116 p53−/− parent
Method: as §3, §2

[9] = test system: R2.2 (HCT116 p53−/− CYC116 resistant clone); test: as above; assay type: cell-based; details: for IC50: Homo sapiens, HCT-116, clone R2.2; for fold increase of IC50 vs parent: clone R2.2 vs HCT116 p53−/− parent
Method: as §3, §2

[10] = test system: R2.3 (HCT116 p53−/− CYC116 resistant clone); test: as above; assay type: cell-based; details: for IC50: Homo sapiens, HCT-116, clone R2.3; for fold increase of IC50 vs parent: clone R2.3 vs HCT116 p53−/− parent
Method: as §3, §2

[11] = test system: R3.1 (HCT116 p53+/+ ZM447439 resistant clone); test: as above; assay type: cell-based; details: for IC50: Homo sapiens, HCT-116, clone R3.1; for fold increase of IC50 vs parent: clone R3.1 vs HCT116 p53+/+ parent
Method: as §3, §2

[12] = test system: R3.2 (HCT116 p53+/+ ZM447439 resistant clone); test: as above; assay type: cell-based; details: for IC50: Homo sapiens, HCT-116, clone R3.2; for fold increase of IC50 vs parent: clone R3.2 vs HCT116 p53+/+ parent
Method: as §3, §2

[13] = test system: R3.3 (HCT116 p53+/+ ZM447439 resistant clone); test: as above; assay type: cell-based; details: for IC50: Homo sapiens, HCT-116, clone R3.3; for fold increase of IC50 vs parent: clone R3.3 vs HCT116 p53+/+ parent
Method: as §3, §2

[14] = test system: R4.1 (HCT116 p53−/− ZM447439 resistant clone); test: as above; assay type: cell-based; details: for IC50: Homo sapiens, HCT-116, clone R4.1; for fold increase of IC50 vs parent: clone R4.1 vs HCT116 p53−/− parent
Method: as §3, §2

[15] = test system: R4.2 (HCT116 p53−/− ZM447439 resistant clone); test: as above; assay type: cell-based; details: for IC50: Homo sapiens, HCT-116, clone R4.2; for fold increase of IC50 vs parent: clone R4.2 vs HCT116 p53−/− parent
Method: as §3, §2

[16] = test system: R4.3 (HCT116 p53−/− ZM447439 resistant clone); test: as above; assay type: cell-based; details: for IC50: Homo sapiens, HCT-116, clone R4.3; for fold increase of IC50 vs parent: clone R4.3 vs HCT116 p53−/− parent
Method: as §3, §2

SMILES	IC50 (HCT116 p53+/+ parent; HCT-116, read-out: mean IC50) [nM]	IC50 (HCT116 p53−/− parent) [nM]	IC50 [5] [nM]	fold increase of IC50 vs parent [5] [fold]	IC50 [6] [nM]	fold increase of IC50 vs parent [6] [fold]	IC50 [7] [nM]	fold increase of IC50 vs parent [7] [fold]	IC50 [8] [nM]	IC50 [9] [nM]	IC50 [10] [nM]	IC50 [11] [nM]	fold increase of IC50 vs parent [11] [fold]	IC50 [12] [nM]	fold increase of IC50 vs parent [12] [fold]	IC50 [13] [nM]	fold increase of IC50 vs parent [13] [fold]	IC50 [14] [nM]	IC50 [15] [nM]	IC50 [16] [nM]	also measured
CC1(C)CCC(c2ccc(Cl)cc2)=C(CN2CCN(c3ccc(C(=O)NS(=O)(=O)c4ccc(N[C@H](CCN5CCOCC5)CSc5ccccc5)c(S(=O)(=O)C(F)(F)F)c4)cc3)CC2)C1 [ABT-263, (R)4-(4-((4′-chloro-4,4-dimethyl-3,4,5,6-tetrahydro[1,1′-biphenyl]-2-yl)methyl)piperazin-1-yl)-N-((4-((4-morpholino-1-(phenylthio)butan-2-yl)amino)-3-((trifluoromethyl)sulfonyl)phenyl)sulfonyl)benzamide]																					response to ABT-263 compared to parent HCT116 p53−/− cells [1]: significant cross-resistance; response to ABT-263 [2]: resistant; response to ABT-263 [3]: resistant; Ki (Bcl-w): < 1 nM
Cc1nc(N)sc1-c1ccnc(Nc2ccc(N3CCOCC3)cc2)n1 [CYC116, 4-methyl-5-(2-(4-morpholinophenylamino)pyrimidin-4-yl)thiazol-2-amine]																					sensitization towards CYC116 by knockdown of Bcl-xL (HCT116 p53+/+ parent; Bcl-xL siRNA knockdown in HCT116 parent cell line (low Bcl-xL expression)): no sensitization effect; IC50 (HCT116 p53+/+ parent; HCT-116, read-out: IC50 value): 340 nM; IC50 ([4]; read-out: IC50 value): 6000 nM; IC50 ([4]; read-out: IC50 value after knockdown of Bcl-xL): 900 nM; IC50 (primary tumor samples; 13 sensitive primary tumor samples): ≤ 4420 nM; IC50 (primary tumor samples; 14 resistant primary tumor samples): ≤ 95000 nM; up-regulation of CYP1A1 (CYP1A1): not detected; inhibition of VEGFR2 (VEGFR2): inhibits; inhibition of Flt-3 (Flt-3): inhibits
O=C(O)c1ccc(Nc2ncc3c(n2)-c2ccc(Cl)cc2C(c2c(F)cccc2F)=NC3)cc1 [MLN8054, 4-[[9-chloro-7-(2,6-difluorophenyl)-5H-pyrimido[5,4-d][2]benzazepin-2-yl]amino]benzoic acid]	190	170	31000	163	15000	79	16000	84	30000	3000	18000	2000	10	2000	10	400	2	22000	18600	39000	fold increase of IC50 vs parent [8]: 176 fold; fold increase of IC50 vs parent [9]: 18 fold; fold increase of IC50 vs parent [10]: 106 fold; fold increase of IC50 vs parent [14]: 129 fold; fold increase of IC50 vs parent [15]: 109 fold; fold increase of IC50 vs parent [16]: 229 fold
CCN(CCCOc1ccc2c(Nc3cc(CC(=O)Nc4cccc(F)c4)n[nH]3)ncnc2c1)CCOP(=O)(O)O [AZD1152, 2-[ethyl-[3-[4-[[5-[2-(3-fluoroanilino)-2-oxoethyl]-1Hpyrazo[3 yl]amino]quinazolin7-yl]oxypropyl]amino]ethyldihydrogen phosphate]	10	> 50000	17000	1700	18000	1800	11000	1100	> 50000	> 50000	> 50000	36000	3600	8000	800	70	7	> 50000	> 50000	> 50000	
Cc1cc(Nc2cc(N3CCN(C)CC3)nc(Sc3ccc(NC(=O)C4CC4)cc3)n2)n[nH]1 [VX-680, N-[4-[4-[4-methylpiperazin-1-yl)-6-[(5-methyl-1H-pyrazol-3-yl)amino]pyrimidin-2-yl]sulfanylphenyl]cyclopropanecarboxamide]	30	100	1900	63	2000	67	1000	33	4000	2000	2400	2600	87	700	23	90	3	800	1500	3000	fold increase of IC50 vs parent [8]: 40 fold; fold increase of IC50 vs parent [9]: 20 fold; fold increase of IC50 vs parent [10]: 24 fold; fold increase of IC50 vs parent [14]: 8 fold; fold increase of IC50 vs parent [15]: 15 fold; fold increase of IC50 vs parent [16]: 13 fold
